Laboratory results as given in patent US20240246942A1, “KINASE INHIBITORS FOR THE TREATMENT OF NEURODEGENERATIVE DISEASES” (priority 2020, published 2024).

Columns and labels:
Experiment in all cases: biochemical
[1] = target: T1, panel of 374 wild-type kinases (Homo sapiens, UniProt P10398); settings: read-out: % Enzyme Activity (relative to DMSO controls), ARAF
T1 construct: purchased Reaction Biology Corporation
T1 sequence (P10398 1-606): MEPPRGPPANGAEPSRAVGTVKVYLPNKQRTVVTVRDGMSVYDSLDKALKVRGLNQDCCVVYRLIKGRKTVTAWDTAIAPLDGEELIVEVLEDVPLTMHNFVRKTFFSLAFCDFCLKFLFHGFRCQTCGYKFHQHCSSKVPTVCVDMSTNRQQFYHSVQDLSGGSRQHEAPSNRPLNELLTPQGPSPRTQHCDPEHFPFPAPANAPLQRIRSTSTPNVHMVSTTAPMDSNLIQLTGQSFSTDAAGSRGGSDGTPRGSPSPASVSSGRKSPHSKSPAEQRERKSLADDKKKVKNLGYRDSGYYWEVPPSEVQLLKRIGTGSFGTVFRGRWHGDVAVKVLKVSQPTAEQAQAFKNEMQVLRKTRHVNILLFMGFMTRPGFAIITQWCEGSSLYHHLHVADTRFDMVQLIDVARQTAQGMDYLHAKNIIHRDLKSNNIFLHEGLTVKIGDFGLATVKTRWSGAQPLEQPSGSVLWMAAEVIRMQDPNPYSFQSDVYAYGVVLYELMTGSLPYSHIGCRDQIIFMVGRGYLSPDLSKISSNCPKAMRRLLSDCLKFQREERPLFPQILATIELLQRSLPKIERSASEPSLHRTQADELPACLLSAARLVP

[2] = target: T2, panel of 374 wild-type kinases (Homo sapiens, UniProt P36897); settings: read-out: % Enzyme Activity (relative to DMSO controls), ALK5/TGFBR1
T2 construct: purchased Reaction Biology Corporation
T2 sequence (P36897 34-503): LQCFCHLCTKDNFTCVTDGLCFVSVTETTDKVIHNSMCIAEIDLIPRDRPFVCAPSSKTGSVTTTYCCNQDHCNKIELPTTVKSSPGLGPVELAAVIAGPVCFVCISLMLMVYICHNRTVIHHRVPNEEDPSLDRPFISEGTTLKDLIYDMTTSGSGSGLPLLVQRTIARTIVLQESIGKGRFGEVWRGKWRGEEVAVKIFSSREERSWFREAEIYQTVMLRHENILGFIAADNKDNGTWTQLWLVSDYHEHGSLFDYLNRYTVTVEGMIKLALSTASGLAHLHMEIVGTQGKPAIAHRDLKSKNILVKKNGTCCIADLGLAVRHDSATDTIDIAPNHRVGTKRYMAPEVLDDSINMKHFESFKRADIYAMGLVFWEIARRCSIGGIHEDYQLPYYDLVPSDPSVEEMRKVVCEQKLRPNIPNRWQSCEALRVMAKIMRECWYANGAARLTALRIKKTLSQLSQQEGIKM

[3] = target: T3, panel of 374 wild-type kinases (Homo sapiens, UniProt P46734); settings: read-out: % Enzyme Activity (relative to DMSO controls), MEK3
T3 construct: purchased Reaction Biology Corporation
T3 sequence (P46734 1-347): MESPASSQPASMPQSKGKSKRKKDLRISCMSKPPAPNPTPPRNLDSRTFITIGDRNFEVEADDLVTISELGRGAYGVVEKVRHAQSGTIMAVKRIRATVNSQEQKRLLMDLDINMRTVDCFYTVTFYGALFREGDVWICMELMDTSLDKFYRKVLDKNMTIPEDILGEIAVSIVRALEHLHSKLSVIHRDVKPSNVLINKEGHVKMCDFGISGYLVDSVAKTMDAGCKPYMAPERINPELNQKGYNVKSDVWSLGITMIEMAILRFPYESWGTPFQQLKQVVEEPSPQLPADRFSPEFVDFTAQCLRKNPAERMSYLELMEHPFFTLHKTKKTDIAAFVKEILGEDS

[4] = target: T4, panel of 374 wild-type kinases (Homo sapiens, UniProt Q04771); settings: read-out: % Enzyme Activity (relative to DMSO controls), ALK2/ACVR1
T4 construct: purchased Reaction Biology Corporation
T4 sequence (Q04771 21-509): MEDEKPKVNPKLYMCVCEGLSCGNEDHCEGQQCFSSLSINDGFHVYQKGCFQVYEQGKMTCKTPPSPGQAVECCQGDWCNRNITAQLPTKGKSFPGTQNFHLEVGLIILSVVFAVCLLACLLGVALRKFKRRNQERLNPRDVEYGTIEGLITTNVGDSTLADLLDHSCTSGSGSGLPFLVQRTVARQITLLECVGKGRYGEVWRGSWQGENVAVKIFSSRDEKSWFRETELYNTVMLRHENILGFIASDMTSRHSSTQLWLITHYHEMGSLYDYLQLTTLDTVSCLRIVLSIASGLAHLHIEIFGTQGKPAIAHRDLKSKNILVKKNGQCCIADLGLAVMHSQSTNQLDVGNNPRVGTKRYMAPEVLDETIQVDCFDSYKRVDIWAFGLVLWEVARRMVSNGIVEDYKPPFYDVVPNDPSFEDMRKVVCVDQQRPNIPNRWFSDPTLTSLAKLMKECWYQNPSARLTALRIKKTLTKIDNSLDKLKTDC

[5] = target: T5, panel of 374 wild-type kinases (Homo sapiens, UniProt Q8IWQ3); settings: read-out: % Enzyme Activity (relative to DMSO controls), BRSK2
T5 construct: purchased Reaction Biology Corporation
T5 sequence (Q8IWQ3 1-736): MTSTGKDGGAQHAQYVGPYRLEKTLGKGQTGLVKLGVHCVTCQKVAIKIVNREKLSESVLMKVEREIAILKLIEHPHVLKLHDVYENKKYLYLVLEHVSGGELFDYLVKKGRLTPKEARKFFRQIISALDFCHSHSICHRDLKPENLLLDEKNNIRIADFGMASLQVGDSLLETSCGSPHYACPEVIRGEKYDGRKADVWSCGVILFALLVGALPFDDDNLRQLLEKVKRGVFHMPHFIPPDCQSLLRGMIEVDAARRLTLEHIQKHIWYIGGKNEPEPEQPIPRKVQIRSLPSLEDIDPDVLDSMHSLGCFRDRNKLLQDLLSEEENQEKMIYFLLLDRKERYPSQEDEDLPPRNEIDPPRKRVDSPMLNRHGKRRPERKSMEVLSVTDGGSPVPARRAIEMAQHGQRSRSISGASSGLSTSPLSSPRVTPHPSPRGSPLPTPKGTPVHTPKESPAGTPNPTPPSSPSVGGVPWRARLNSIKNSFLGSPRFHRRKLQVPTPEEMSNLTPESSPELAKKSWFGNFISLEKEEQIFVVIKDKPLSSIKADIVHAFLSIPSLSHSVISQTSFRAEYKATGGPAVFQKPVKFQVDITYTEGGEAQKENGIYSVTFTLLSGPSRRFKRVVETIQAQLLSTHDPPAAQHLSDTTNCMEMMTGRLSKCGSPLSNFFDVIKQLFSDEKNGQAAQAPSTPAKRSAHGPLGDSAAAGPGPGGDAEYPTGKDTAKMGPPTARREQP

Compound	remaining activity at 5 µM [1] [%]	remaining activity at 5 µM [2] [%]	remaining activity at 5 µM [3] [%]	remaining activity at 5 µM [4] [%]	remaining activity at 5 µM [5] [%]	remaining activity at 10 µM ([1]; 10 uM) [%]	remaining activity at 10 µM ([2]; 10 uM) [%]	remaining activity at 10 µM ([3]; 10 uM) [%]	remaining activity at 10 µM ([4]; 10 uM) [%]	remaining activity at 10 µM ([5]; 10 uM) [%]
O=C(Nc1cnn(-c2csc(C(=O)NC3COC3)c2)c1)Nc1ccccc1Cl [Compound 17, 4-(4-(3-(2-chlorophenyl)ureido)-1H-pyrazol-1-yl)-N-(oxetan-3-yl)thiophene-2-carboxamide]	95.1	103	104	105	102	–	–	–	–	–
Cc1sc(C(=O)NC2COC2)cc1-n1cc(NC(=O)Nc2c(F)cccc2Cl)cn1 [Compound 27, 4-(4-(3-(2-chloro-6-fluorophenyl)ureido)-1H-pyrazol-1-yl)-5-methyl-N-(oxetan-3-yl)thiophene-2-carboxamide]	–	–	–	–	–	84.1	104	88.8	108	102
O=C(Nc1cnn(-c2csc(C(=O)NC3COC3)c2)c1)Nc1c(F)cccc1Cl [Compound 25, 4-(4-(3-(2-chloro-6-fluorophenyl)ureido)-1H-pyrazol-1-yl)-N-(oxetan-3-yl)thiophene-2-carboxamide]	94.4	97.4	111	95.7	100	–	–	–	–	–
